From US7396645B1, “Cholestasis signature” (priority 2002, dated 2008)
Where two headings read alike, the source gives them in different places. Marks after values point to notes of the source that are not given here.

What was measured:
[1] = tested on: Cholestasis Signature
Procedure: (§1) After determination of the MTD and FED for a compound, each compound was dissolved in a vehicle for administration on day 1 of the study (additional daily doses were stored as frozen aliquots from this initial formulation). Each compound was administered to three individual male Sprague-Dawley rats for each of the two doses (MTD and FED) for one of four different times (0.25 day, 1 day, 3 days, and 5 days), yielding a total of up to 24 animals per compound study. Vehicle choice was based on solubility of the compound, effect of food on adsorption, and the vehicles used in the literature reports examined during the FED selection investigations, described above. Generally, the route and vehicle in which the FED was defined are used. When there was a choice of routes and vehicles, oral routes were chosen over injection routes. Many compounds, especially oncolytics, are only administerable intravenously. In such cases, the compound was administered as an intravenous formulation into the tail vein. Orally administered compounds were given dissolved in either water, 1% carboxymethycellulose (CMC) or corn oil. Intravenously and intraperitoneally administered compounds were given in 0.9% saline. Subcutaneously administered compounds were given in corn oil. Animal body weights were determined at 1 day and, where appropriate, at 4 days, before necropsy, and clinical observations were made on a daily basis. Control animals were dosed with vehicle only. Three male animals were used for each dose and time combination used for the compound treatment.
(§2) Tissue Harvest and Handling: After the allocated treatment time, the tissues from the animals were harvested. […] All the tissues collected were divided to provide samples for histopathological analyses, and the remainder of each tissue was then snap-frozen. […] The parameters were measured using a Hitachi-911 clinical chemistry analysis instrument according to the manufacturer's instructions. The following blood constituents were measured: Blood Urea Nitrogen (BUN), Creatinine (CRE), Glucose (GLU), Alanine Transaminase (ALT), Aspartate Aminotrans-ferase (AST), Alkaline Phosphatase (ALP), Total Bilirubin (TBI), Sodium (SOD), Potassium (POT), Chloride (CHL), Phosphorus (PHO), Total Protein (TPR), Albumin (ALB), Cholesterol (CHO), Creatine Phosphokinase (CPK), Lactate Dehydrogenase (LDH), Carbon Dioxide (CO2), Uric Acid (UA), and Lipase. […] The parameters were measured using a Baker 9000 blood cell analysis instrument according to the manufactures instructions. The following blood constituents were measured: Leukocyte count (WBC), Differential Leukocyte counts, Erythrocyte count (RBC), Hemoglobin concentration (HGB), Hematocrit (HCT), Mean Corpuscular Volume (MCV), Mean Corpuscular Hemoglobin (MCH), Mean Corpuscular Hemoglobin Concentration (MCC), Thrombocyte Count (PLC). Histopathology: Histopathological analyses of hematoxylin and eosin-stained tissue sections were performed and peer-reviewed by board-certified (Diplomate, American College of Veterinary Pathologists) veterinary pathologists. Preparation of Enriched mRNA: Punch Biopsies were Taken from the Frozen Tissues and were completely homogenized before being processed using the MagNA Pure robot. (Roche Diagnostics Corp., Indianapolis, Ind.) in combination with the MagNA Pure LC RNA Isolation kit II (Roche Diagnostics Corp). The amount of lysis buffer was adjusted to allow 1 ml per 50 mg for liver tissue, or 1 ml per 80 mg for all other tissues. After complete homogenization and before loading of the samples into the 32-well MagNA Pure plate, the samples were syringed 5-6 times using a 20-gauge 3-ml syringe to ensure a smooth solution for robotic processing. Tissue sample processing was performed in duplicate wells (loading 150 μl of homogenized sample and 150 μl of additional lysis buffer to each well) of the MagNA Pure LC, which is programmed to extract mRNA using oligo-dT selection technology into a final elution volume of 100 μl.

[2] = tested on: male Sprague-Dawley rats; details: rat, in vivo, po
Description: Compound dosing was based on the acute dose LD50s recorded in published reference or literature sources. […] The MTD (maximum tolerated dose) was then selected as the dose at which the animals […] 5-10% body weight during the 5-day range finding study. […] In addition, the clinical observations must show no or mild clinical signs during the whole of the range-finding study. At the next highest dose, signs and symptoms of adverse effects and exceeding those of the MTD should be seen to occur. Should these criteria not be met, the range-finding study is repeated using a modified dose range.
as §1
Tissue Harvest and Handling: After the allocated treatment time, the tissues from the animals were harvested. […] All the tissues collected were divided to provide samples for histopathological analyses, and the remainder of each tissue was then snap-frozen. […] The parameters were measured using a Hitachi-911 clinical chemistry analysis instrument according to the manufacturer's instructions. The following blood constituents were measured: Blood Urea Nitrogen (BUN), Creatinine (CRE), Glucose (GLU), Alanine Transaminase (ALT), Aspartate Aminotrans-ferase (AST), Alkaline Phosphatase (ALP), Total Bilirubin (TBI), Sodium (SOD), Potassium (POT), Chloride (CHL), Phosphorus (PHO), Total Protein (TPR), Albumin (ALB), Cholesterol (CHO), Creatine Phosphokinase (CPK), Lactate Dehydrogenase (LDH), Carbon Dioxide (CO2), Uric Acid (UA), and Lipase. […] The parameters were measured using a Baker 9000 blood cell analysis instrument according to the manufactures instructions. The following blood constituents were measured: Leukocyte count (WBC), Differential Leukocyte counts, Erythrocyte count (RBC), Hemoglobin concentration (HGB), Hematocrit (HCT), Mean Corpuscular Volume (MCV), Mean Corpuscular Hemoglobin (MCH), Mean Corpuscular Hemoglobin Concentration (MCC), Thrombocyte Count (PLC). Histopathology: Histopathological analyses of hematoxylin and eosin-stained tissue sections were performed and peer-reviewed by board-certified (Diplomate, American College of Veterinary Pathologists) veterinary pathologists.

[3] = tested on: livers of rats
Procedure: as §1, §2

[4] = rat liver expression data vs Cholestasis Signature, maximum score of training treatments normalised to 100, dose and time not given

SMILES | Sequence Projection Score (SPS) ([1]; rat, in vivo) | also measured
ClC(Cl)(Cl)Cl [CARBON TETRACHLORIDE] | – | Sequence Projection Score (SPS) [1, 4]: 50*
CC(C)n1c(/C=C/C(O)CC(O)CC(=O)O)c(-c2ccc(F)cc2)c2ccccc21 (centres unmarked) [FLUVASTATIN] | 67* | –
CC(C)(Oc1ccc(CCNC(=O)c2ccc(Cl)cc2)cc1)C(=O)O [BEZAFIBRATE] | 42* | –
C#C[C@]1(OC(C)=O)CC[C@H]2[C@@H]3CCC4=CC(=O)CC[C@@H]4[C@H]3CC[C@@]21C [NORETHINDRONE ACETATE] | 23* | –
CC/C(=C(/CC)c1ccc(O)cc1)c1ccc(O)cc1 [DIETHYLSTILBESTROL, 3,4-bis-(4-hydroxyphenyl)-3-hexene] | 34* | raised serum levels of ALP and TBI compared with vehicle-treated control animals [2]: at least 2 fold; Fold change in serum alkaline phosphatase ([2]; 300 mg/kg): 2.0 fold; Fold change in serum alkaline phosphatase and total bilirubin ([2]; 300 mg/kg): 11.5 fold; Fold change in serum total bilirubin ([2]; 300 mg/kg): 5.8 fold; increased hepatocyte enlargement and increased eosinophilic granular cytoplasm ([3]; rat, in vivo): mild to severe; nuclear/cytoplasmic condensation (apoptosis) and/or necrosis in liver ([3]; rat, in vivo): mild to moderate
CC#C[C@]1(O)CC[C@H]2[C@@H]3CCC4=CC(=O)CCC4=C3[C@@H](c3ccc(N(C)C)cc3)C[C@@]21C [MIFEPRISTONE] | 39* | –
C[C@]12CC[C@@H]3c4ccc(O)cc4CC[C@H]3[C@@H]1CC[C@@H]2O [BETA ESTRADIOL] | 26* | –
CC(C)Cc1ccc(C(C)C(=O)O)cc1 (centres unmarked) [IBUPROFEN] | 33* | –
S=C=Nc1cccc2ccccc12 [1-NAPHTHYL ISOTHIOCYANATE, 1-naphthyl isothiocyanate] | – | Sequence Projection Score (SPS) [1, 4]: 90**
COc1ccc2cc([C@H](C)C(=O)O)ccc2c1 [NAPROXEN] | 48* | –
CC(C)c1c(C(=O)Nc2ccccc2)c(-c2ccccc2)c(-c2ccc(F)cc2)n1CC[C@@H](O)C[C@@H](O)CC(=O)O (relative stereo) [ATORVASTATIN, (R—(R*,R*))-2-(4-fluorophenyl)-β,δ-dihydroxy-5-(1-methylethyl)-3-phenyl-4-((phenylamino)carbonyl)-1H-pyrrole-1-heptanoic acid] | 62* | raised serum levels of ALP and TBI compared with vehicle-treated control animals [2]: at least 2 fold
C[C@]12CCC(=O)C=C1CC[C@@H]1[C@@H]2CC[C@@]2(C)[C@H]1CC[C@]2(C)O [17-METHYLTESTOSTERONE] | – | Sequence Projection Score (SPS) [1, 4]: 36*
CC(C)OC(=O)C(C)(C)Oc1ccc(C(=O)c2ccc(Cl)cc2)cc1 [FENOFIBRATE] | 43* | –
C[C@]12CC[C@@H]3c4ccc(O)cc4CC[C@H]3[C@@H]1C[C@@H](O)[C@@H]2O [ESTRIOL] | 27* | –
CC(=O)N1CCN(c2ccc(OCC3COC(Cn4ccnc4)(c4ccc(Cl)cc4Cl)O3)cc2)CC1 (centres unmarked) [KETOCONAZOLE] | 21 | –
COc1ccc2c(c1)c(CC(=O)O)c(C)n2C(=O)c1ccc(Cl)cc1 [INDOMETHACIN] | 52* | –
CC1=C(CC(=O)O)c2cc(F)ccc2/C1=C\c1ccc([S+](C)[O-])cc1 (centres unmarked) | 45* | –
Cc1cnc(NC(=O)C2=C(O)c3ccccc3S(=O)(=O)N2C)s1 [MELOXICAM] | 31* | –

SMILES | Sequence Projection Score (SPS) ([1]; rat, in vivo) | also measured
O=C(O)Cc1ccccc1Nc1c(Cl)cccc1Cl [DICLOFENAC] | 41* | –
OC(Cn1cncn1)(Cn1cncn1)c1ccc(F)cc1F [FLUCONAZOLE] | 63* | –
C#C[C@]1(O)CC[C@H]2[C@@H]3CCc4cc(O)ccc4[C@H]3CC[C@@]21C [ETHINYLESTRADIOL] | 61* | –
CC[C@H](C)C(=O)O[C@H]1C[C@@H](C)C=C2C=C[C@H](C)[C@H](CC[C@@H]3C[C@@H](O)CC(=O)O3)[C@H]21 [LOVASTATIN] | 37* | –
CN(C)C=O [N,N-DIMETHYLFORMAMIDE] | – | Sequence Projection Score (SPS) [1, 4]: 27*
Clc1ccc(COC(Cn2ccnc2)c2ccc(Cl)cc2Cl)c(Cl)c1 (stereo not drawn) [MICONAZOLE, 1-[2,4-dichloro-β-(2,4-dichlorobenzyloxy)phenethyl]imidazole nitrate] | – | Sequence Projection Score (SPS) [1, 4]: 100**; increased hepatocyte enlargement and increased eosinophilic granular cytoplasm ([3]; rat liver histopathology, training-set treatments): mild to severe
CS(=O)(=O)c1ccc(C2=C(c3ccccc3)C(=O)OC2)cc1 [ROFECOXIB] | 27* | –
CN(Cc1cnc2nc(N)nc(N)c2n1)c1ccc(C(=O)N[C@@H](CCC(=O)O)C(=O)O)cc1 [METHOTREXATE] | 17 | –
COCc1c(C(C)C)nc(C(C)C)c(/C=C/[C@@H](O)C[C@@H](O)CC(=O)O)c1-c1ccc(F)cc1 [CERIVASTATIN] | 36* | –
CCCCCCCCc1ccc(O)cc1 [4-OCTYLPHENOL] | – | Sequence Projection Score (SPS) [1, 4]: 22
C[C@@H]1C[C@H]2[C@@H]3CCC4=CC(=O)C=C[C@]4(C)[C@@]3(F)[C@@H](O)C[C@]2(C)[C@@]1(O)C(=O)CO [DEXAMETHASONE] | 32* | –
Oc1c(Cl)cc(Cl)cc1Sc1cc(Cl)cc(Cl)c1O [BITHIONOL] | 23* | –
CCC(C)n1ncn(-c2ccc(N3CCN(c4ccc(OCC5COC(Cn6cncn6)(c6ccc(Cl)cc6Cl)O5)cc4)CC3)cc2)c1=O (centres unmarked) [ITRACONAZOLE] | 17 | –
CS(=O)(=O)Nc1ccc([N+](=O)[O-])cc1Oc1ccccc1 [NIMESULIDE] | 38* | –
Nc1nc2nc[nH]c2c(=S)[nH]1 [THIOGUANINE] | 19 | –
CCOC(=O)C(C)(C)Oc1ccc(Cl)cc1 [CLOFIBRATE] | 22 | –
CCO [ETHANOL] | – | raised serum levels of ALP and TBI compared with vehicle-treated control animals [2]: at least 2 fold; Fold change in serum alkaline phosphatase ([2]; 3000 mg/kg): 1.5 fold; Fold change in serum alkaline phosphatase and total bilirubin ([2]; 3000 mg/kg): 3.1 fold; Fold change in serum total bilirubin ([2]; 3000 mg/kg): 2.0 fold; steatosis ([3]; rat, in vivo): moderate to very severe
